Measured values as given in patent publication US7683168B2, “Compositions of novel opioid compounds and method of use thereof” (priority 2005, dated 2010).

Experiments:
guinea pig ileum = test: electrically stimulated guinea pig ileum (GPI) ED50; format: cell-based; details: Cavia porcellus; ED50, inhibition of electrically induced contractions
Experimental: Further the compounds of formula (1) were evaluated for in vitro opioid receptor activity in various receptor systems, including mouse vas deferens (Mouse Vas Deferens ED50), and guinea pig ileum (Guinea Pig Ileum ED50). The assay procedures used for such determinations of receptor activity are set out below.
Intact ileums (about 3 cm length) were removed from guinea pig and suspended with 1 g of tension in a bath chamber as described for the vasa deferentia. The ileums were stimulated with electrical square-wave pulses of 0.1-Hz, 1 msec pulse duration at supramaximal voltage.
The ED50 values were extrapolated from curves showing the dose concentration plotted against the response (J. A. H. Lord, A. A. Waterfield, J. Hughes, H. W. Kosterlitz, Nature 267, 495, (1977)).

[1] = tested on: seizure-like convulsions in mice; test: mouse seizure-like convulsions; format: in vivo
Experimental: Mouse Seizure-Like Convulsions and antinociception: The central (CNS) effects of the compound were tested with central delta receptor mediated seizure-like convulsions and central mu opioid receptor mediated antinociceptive effects in mice. Male CD-1 mice (Charles River, Raleigh, N.C.) weighing 20-25 g were used to determine the seizure-like convulsion and antinociception activities for compounds.
They were then observed for seizure-like convulsions for one hour following the treatment. A seizure-like event was recorded if a mouse had uncontrollable clonic (or tonic/clonic) muscle movements that encompassed its entire body, usually followed by a brief cataleptic period. Catalepsy was determined by placing the animal's front paws on a horizontal bar held 2-3 inches from the cage floor. Cataleptic animals made no attempt to remove their paws.

human mu opioid receptor = target: T1, human mu opioid receptor (Homo sapiens, UniProt P35372); test: radioligand binding, human mu opioid receptor, CHO cell membranes; details: species not given, read-out: μ
T1 construct: purchased Perkin Elmer, Boston, Mass; 6110535; host or cells: CHO cells

mouse vas deferens = test: electrically stimulated mouse vas deferens (MVD) ED50; format: cell-based; details: ED50, inhibition of electrically induced contractions
human delta receptor = target: T2, human delta receptor (Homo sapiens, UniProt P41143); test: radioligand binding, human delta receptor, HEK-293 cell membranes; details: cell not marked (rat), species not given, read-out: δ
T2 construct: purchased Perkin Elmer, Boston, Mass; 6110549; host or cells: HEK-293 cells
T2 sequence (P41143 whole entry): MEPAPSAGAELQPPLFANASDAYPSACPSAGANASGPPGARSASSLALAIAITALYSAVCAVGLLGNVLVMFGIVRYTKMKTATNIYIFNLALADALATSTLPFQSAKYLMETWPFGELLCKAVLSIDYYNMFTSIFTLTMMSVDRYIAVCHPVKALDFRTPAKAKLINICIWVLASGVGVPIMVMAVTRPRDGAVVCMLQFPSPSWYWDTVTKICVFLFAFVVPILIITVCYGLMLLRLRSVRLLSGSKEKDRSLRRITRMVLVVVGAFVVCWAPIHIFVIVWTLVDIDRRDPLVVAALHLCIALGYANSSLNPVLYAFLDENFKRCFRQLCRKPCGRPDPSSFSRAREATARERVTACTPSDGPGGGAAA

T1 sequence (P35372 whole entry): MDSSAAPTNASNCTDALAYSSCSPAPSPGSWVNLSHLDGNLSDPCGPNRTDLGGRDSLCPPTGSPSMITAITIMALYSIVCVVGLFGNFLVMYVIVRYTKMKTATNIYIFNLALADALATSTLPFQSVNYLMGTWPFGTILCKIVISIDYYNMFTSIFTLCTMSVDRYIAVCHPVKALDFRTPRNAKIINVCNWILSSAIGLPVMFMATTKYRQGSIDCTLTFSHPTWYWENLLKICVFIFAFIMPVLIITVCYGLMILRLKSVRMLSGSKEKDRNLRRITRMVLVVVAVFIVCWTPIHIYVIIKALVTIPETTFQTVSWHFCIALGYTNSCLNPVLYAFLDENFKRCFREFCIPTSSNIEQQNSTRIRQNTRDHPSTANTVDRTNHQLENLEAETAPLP

C=CCN1C[C@H](C)N([C@@H](c2cccc(O)c2)c2cccc(C(=O)N3CCN(CCCC(=O)O)CC3)c2)C[C@H]1C [Example 75]
EC50 (guinea pig ileum): 178 nM | Seiz. ([1]; 10 mg/kg IV): 0% 10 mg/kg IV | Ki (human mu opioid receptor): 10.8 nM | EC50 (mouse vas deferens): 4.1 nM | Ki (human delta receptor): 25.3 nM

CCOC(=O)CN1CCN(C(=O)c2cccc([C@H](c3cccc(O)c3)N3C[C@@H](C)N(Cc4ccccc4)C[C@@H]3C)c2)CC1 [Example 68, (4-{3-[(R)-((2S,5R)-4-Benzyl-2,5-dimethyl-piperazin-1-yl)-(3-hydroxy-phenyl)-methyl]-benzoyl}-piperazin-1-yl)-acetic acid ethyl ester]
EC50 (guinea pig ileum): 526 nM | Seiz. ([1]; 10 mg/kg IV): 80% 10 mg/kg IV | Ki (human mu opioid receptor): 1.22 nM | EC50 (mouse vas deferens): 1.91 nM | Ki (human delta receptor): 0.73 nM

C[C@@H]1CN(C(c2cccc(O)c2)c2cccc(C(=O)N3CCCN(CC(=O)O)CC3)c2)[C@@H](C)CN1Cc1ccccc1 (some centres unmarked)
EC50 (guinea pig ileum): > 1000 nM | Seiz. ([1]; 20 mg/kg IV): 0% 20 mg/kg IV | Ki (human mu opioid receptor): 1.27 nM | EC50 (mouse vas deferens): 1.4 nM

C[C@@H]1CN([C@@H](c2cccc(O)c2)c2cccc(C(=O)N3CCC(C(=O)O)CC3)c2)[C@@H](C)CN1CC1CC1 [Example 127, 1-{3-[(R)-((1S,4R)-4-Cyclopropylmethyl-2,5-dimethyl-piperazin-1-yl)-(3-hydroxy-phenyl)-methyl]-benzoyl}-piperidine-4-carboxylic acid]
EC50 (guinea pig ileum): 242 nM | Seiz. ([1]; 10 mg/kg IV): 0% 10 mg/kg IV | EC50 (mouse vas deferens): 11.5 nM | Ki (human delta receptor): 4.35 nM

C[C@@H]1CN([C@@H](c2cccc(O)c2)c2cccc(C(=O)N3CCC(C(=O)O)CC3)c2)[C@@H](C)CN1Cc1ccccc1 [Example 123, 1-{3-[(R)-((2S,5R)-4-Benzyl-2,5-dimethyl-piperazin-1-yl)-(3-hydroxy-phenyl)-methyl]-benzoyl}-piperidine-4-carboxylic acid]
EC50 (guinea pig ileum): 17.8 nM | Seiz. ([1]; 10 mg/kg IV): 0% 10 mg/kg IV | EC50 (mouse vas deferens): 0.48 nM

C[C@@H]1CN([C@@H](c2cccc(O)c2)c2cccc(C(=O)N3CCCN(CCC(=O)O)CC3)c2)[C@@H](C)CN1CC1CC1
EC50 (guinea pig ileum): 664 nM | Seiz. ([1]; 20 mg/kg IV): 0% 20 mg/kg IV | Ki (human mu opioid receptor): 22.3 nM | EC50 (mouse vas deferens): 66 nM | Ki (human delta receptor): 69 nM

C[C@@H]1CN(C(c2cccc(O)c2)c2cccc(C(=O)N3CCCN(CCCC(=O)O)CC3)c2)[C@@H](C)CN1Cc1ccccc1 (some centres unmarked)
EC50 (guinea pig ileum): 159 nM | Seiz. ([1]; 10 mg/kg IV): 0% 10 mg/kg IV | Ki (human mu opioid receptor): 1.9 nM | EC50 (mouse vas deferens): 1.07 nM | Ki (human delta receptor): 14.8 nM

CCOC(=O)CCN1CCCN(C(=O)c2cccc([C@H](c3cccc(O)c3)N3C[C@@H](C)N(CC4CC4)C[C@@H]3C)c2)CC1
EC50 (guinea pig ileum): 567 nM | Seiz. ([1]; 10 mg/kg IV): 0% 10 mg/kg IV | Ki (human mu opioid receptor): 2.9 nM | EC50 (mouse vas deferens): 22.6 nM | Ki (human delta receptor): 121 nM

C[C@@H]1CN([C@@H](c2cccc(O)c2)c2cccc(C(=O)N3CCN(CCCC(=O)O)CC3)c2)[C@@H](C)CN1Cc1ccccc1 [Example 80, 4-(4-{3-[(R)-((2S,5R)-4-Benzyl-2,5-dimethyl-piperazin-1-yl)-(3-hydroxy-phenyl)-methyl]-benzoyl}-piperazin-1-yl)-butyric acid]
EC50 (guinea pig ileum): 104 nM | Seiz. ([1]; 10 mg/kg IV): 0% 10 mg/kg IV | Ki (human mu opioid receptor): 5.3 nM | EC50 (mouse vas deferens): 0.34 nM | Ki (human delta receptor): 5.7 nM

C[C@@H]1CN([C@@H](c2cccc(O)c2)c2cccc(C(=O)N3CCC(C(=O)O)CC3)c2)[C@@H](C)CN1Cc1cccc(F)c1 [Example 125, 1-{3-[(R)-[(2S,5R)-4-(3-Fluoro-benzyl)-2,5-dimethyl-piperazin-1-yl]-(3-hydroxyphenyl)-methyl]-benzoyl}-piperidine-4-carboxylic acid]
EC50 (guinea pig ileum): 46.7 nM | Seiz. ([1]; 10 mg/kg IV): 0% 10 mg/kg IV | EC50 (mouse vas deferens): 1.42 nM

CCOC(=O)C1CCN(C(=O)c2cccc([C@H](c3cccc(O)c3)N3C[C@@H](C)N(Cc4ccccc4)C[C@@H]3C)c2)CC1 [Example 122, 1-{3-[(R)-((2S,5R)-4-Benzyl-2,5-dimethyl-piperazin-1-yl)-(3-hydroxy-phenyl)-methyl]-benzoyl}-piperidine-4-carboxylic acid ethyl ester]
EC50 (guinea pig ileum): 153 nM | Seiz. ([1]; 10 mg/kg IV): 70% 10 mg/kg IV | Ki (human mu opioid receptor): 1.9 nM | EC50 (mouse vas deferens): 0.82 nM | Ki (human delta receptor): 4.5 nM

C[C@@H]1CN(C(c2cccc(O)c2)c2cccc(C(=O)N3CCCN(CCCCCC(=O)O)CC3)c2)[C@@H](C)CN1Cc1ccccc1 (some centres unmarked)
EC50 (guinea pig ileum): 303 nM | Ki (human mu opioid receptor): 3.9 nM | EC50 (mouse vas deferens): 3.26 nM | Ki (human delta receptor): 2.8 nM

CCOC(=O)CN1CCCN(C(=O)c2cccc(C(c3cccc(O)c3)N3C[C@@H](C)N(Cc4cccc(F)c4)C[C@@H]3C)c2)CC1 (some centres unmarked)
EC50 (guinea pig ileum): 761 nM | Seiz. ([1]; 10 mg/kg IV): 20% 10 mg/kg IV | Ki (human mu opioid receptor): 2.6 nM | EC50 (mouse vas deferens): 13.4 nM | Ki (human delta receptor): 5.4 nM

CCOC(=O)CCN1CCCN(C(=O)c2cccc([C@H](c3cccc(O)c3)N3C[C@@H](C)N(Cc4cccc(F)c4)C[C@@H]3C)c2)CC1
EC50 (guinea pig ileum): 978 nM | Seiz. ([1]; 10 mg/kg IV): 20% 10 mg/kg IV | Ki (human mu opioid receptor): 4.8 nM | EC50 (mouse vas deferens): 17.1 nM | Ki (human delta receptor): 71 nM

C=CCN1C[C@H](C)N([C@@H](c2cccc(O)c2)c2cccc(C(=O)N3CCC(C(=O)OCC)CC3)c2)C[C@H]1C [Example 119, 1-{3-[(R)-((2S,5R)-4-Allyl-2,5-dimethylpiperazin-1-yl)-(3-hydroxy-phenyl)methyl]benzoyl}piperidine-4-carboxylic acid ethyl ester]
EC50 (guinea pig ileum): 86.3 nM | Seiz. ([1]; 10 mg/kg IV): 80% 10 mg/kg IV | Ki (human mu opioid receptor): 0.54 nM | EC50 (mouse vas deferens): 1.96 nM | Ki (human delta receptor): 2.95 nM

C[C@@H]1CN([C@@H](c2cccc(O)c2)c2cccc(C(=O)N3CCN(CCCCCC(=O)O)CC3)c2)[C@@H](C)CN1Cc1ccccc1 [Example 97, 6-(4-{3-[(R)-((2S,5R)-4-Benzyl-2,5-dimethyl-piperazin-1-yl)-(3-hydroxy-phenyl)-methyl]-benzoyl}-piperazin-1-yl)-hexanoic acid]
EC50 (guinea pig ileum): 445 nM | Seiz. ([1]; 10 mg/kg IV): 0% 10 mg/kg IV | EC50 (mouse vas deferens): 2.5 nM | Ki (human delta receptor): 1.2 nM

C=CCN1C[C@H](C)N([C@@H](c2cccc(O)c2)c2cccc(C(=O)N3CCC(C(=O)O)CC3)c2)C[C@H]1C [Example 120, 1-{3-[(R)-((2S,5R)-4-Allyl-2,5-dimethyl-piperazin-1-yl)-(3-hydroxy-phenyl)-methyl]-benzoyl}-piperidine-4-carboxylic acid]
EC50 (guinea pig ileum): 48.6 nM | Seiz. ([1]; 10 mg/kg IV): 10% 10 mg/kg IV | Ki (human mu opioid receptor): 4.1 nM | EC50 (mouse vas deferens): 2.49 nM

C=CCN1C[C@H](C)N([C@@H](c2cccc(O)c2)c2cccc(C(=O)N3CCN(CCCCC(=O)OCC)CC3)c2)C[C@H]1C [Example 83, 5-(4-{3-[(R)-((2S,5R)-4-Allyl-2,5-dimethyl-piperazin-1-yl)-(3-hydroxy-phenyl)-methyl]-benzoyl}-piperazin-1-yl)-pentanoic acid ethyl ester]
Seiz. ([1]; 10 mg/kg IV): 30% 10 mg/kg IV | Ki (human mu opioid receptor): 8.9 nM | EC50 (mouse vas deferens): 11.8 nM | Ki (human delta receptor): 10.7 nM

C[C@@H]1CN(C(c2cccc(O)c2)c2cccc(C(=O)N3CCCN(CCCCC(=O)O)CC3)c2)[C@@H](C)CN1Cc1cccc(F)c1 (some centres unmarked)
Seiz. ([1]; 10 mg/kg IV): 0% 10 mg/kg IV | Ki (human mu opioid receptor): 34.8 nM | EC50 (mouse vas deferens): 14.7 nM | Ki (human delta receptor): 35.4 nM

CCOC(=O)CCCN1CCCN(C(=O)c2cccc(C(c3cccc(O)c3)N3C[C@@H](C)N(Cc4cccc(F)c4)C[C@@H]3C)c2)CC1 (some centres unmarked)
EC50 (guinea pig ileum): 1500 nM | Ki (human mu opioid receptor): 2.3 nM | EC50 (mouse vas deferens): 30 nM | Ki (human delta receptor): 1.7 nM

C[C@@H]1CN(C(c2cccc(O)c2)c2cccc(C(=O)N3CCCN(CCCC(=O)O)CC3)c2)[C@@H](C)CN1Cc1cccc(F)c1 (some centres unmarked)
Seiz. ([1]; 10 mg/kg IV): 0% 10 mg/kg IV | Ki (human mu opioid receptor): 0.27 nM | EC50 (mouse vas deferens): 6.37 nM | Ki (human delta receptor): 94 nM
